# Laboratory results reported in PMC6934184, “Selective DNA-PKcs inhibition extends the therapeutic index of localized radiotherapy and chemotherapy” (The Journal of Clinical Investigation, 2019).
# Target: T1, AMPK (A1/B1/G3) (Homo sapiens, UniProt Q13131)
# T1 construct: purchased Thermo Fisher Scientific (Life Technologies) SelectScreen
# Test: SelectScreen LanthaScreen
# Assay type: binding
# Conditions: read-out: % displacement
# Method in brief: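 SelectScreen broad panel; activity (Z'LYTE, Adapta) plus binding formats. ATP: Km app for CSF1R Z'LYTE; 10 for CAMK1 Adapta. Readout = % per kinase.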
# T1 sequence (Q13131 whole entry): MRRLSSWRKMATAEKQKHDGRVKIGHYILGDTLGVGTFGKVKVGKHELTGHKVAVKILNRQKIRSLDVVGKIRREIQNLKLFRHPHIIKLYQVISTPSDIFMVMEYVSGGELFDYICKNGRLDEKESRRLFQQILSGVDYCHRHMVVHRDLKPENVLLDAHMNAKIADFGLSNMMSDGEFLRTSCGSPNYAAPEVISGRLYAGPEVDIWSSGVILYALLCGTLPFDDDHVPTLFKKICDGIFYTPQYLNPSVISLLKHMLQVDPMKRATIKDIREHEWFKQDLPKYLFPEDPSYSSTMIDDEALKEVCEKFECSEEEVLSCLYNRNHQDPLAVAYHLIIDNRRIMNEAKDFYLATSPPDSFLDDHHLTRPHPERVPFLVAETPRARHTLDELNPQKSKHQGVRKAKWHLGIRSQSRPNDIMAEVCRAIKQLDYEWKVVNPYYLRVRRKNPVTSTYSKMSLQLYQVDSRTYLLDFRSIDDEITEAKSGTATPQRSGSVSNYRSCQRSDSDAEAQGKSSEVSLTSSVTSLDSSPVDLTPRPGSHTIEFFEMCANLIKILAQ
# T1 sequence (Q9Y478 whole entry partner): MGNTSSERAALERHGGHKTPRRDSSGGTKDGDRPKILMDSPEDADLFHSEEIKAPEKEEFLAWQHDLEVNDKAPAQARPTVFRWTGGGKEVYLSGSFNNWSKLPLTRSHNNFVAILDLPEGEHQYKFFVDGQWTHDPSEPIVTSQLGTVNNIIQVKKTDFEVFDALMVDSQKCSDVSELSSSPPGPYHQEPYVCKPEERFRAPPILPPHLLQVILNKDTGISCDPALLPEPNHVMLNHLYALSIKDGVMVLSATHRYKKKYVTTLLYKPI
# T1 sequence (Q9UGI9 whole entry partner): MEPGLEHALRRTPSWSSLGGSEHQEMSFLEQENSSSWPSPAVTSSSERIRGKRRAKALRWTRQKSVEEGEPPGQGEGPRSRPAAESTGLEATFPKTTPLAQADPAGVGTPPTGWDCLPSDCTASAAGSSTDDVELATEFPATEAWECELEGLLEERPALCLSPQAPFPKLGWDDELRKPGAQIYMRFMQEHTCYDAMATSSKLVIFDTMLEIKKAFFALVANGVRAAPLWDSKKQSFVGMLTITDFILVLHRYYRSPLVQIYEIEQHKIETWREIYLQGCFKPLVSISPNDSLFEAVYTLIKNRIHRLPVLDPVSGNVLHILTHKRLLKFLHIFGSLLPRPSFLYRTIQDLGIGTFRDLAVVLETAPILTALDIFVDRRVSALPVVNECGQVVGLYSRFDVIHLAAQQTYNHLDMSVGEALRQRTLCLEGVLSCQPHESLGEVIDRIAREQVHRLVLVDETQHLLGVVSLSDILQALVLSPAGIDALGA
structure (smiles),measurement,value
CN(C(=O)CN1CCOCC1)c1ccc2sc3c(-c4cccc5c(=O)cc(N6CC7CCC(C6)O7)oc45)cccc3c2c1 [NU5455],inhibition at 1 µM,0.2%
